What was measured:
Assay type in all cases: in vivo
[1] = tested on: velvetleaf (Abutilon theophrasti, ABUTH); assay: Post-emerge test, greenhouse herbicide activity screening; conditions: rating scale 0-100 (0 no damage, 100 complete death), 14 days after application
Outline: (§1)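 Compounds in acetone were track-sprayed at 15-1000 g ai/ha (187 l/ha) on sandy loam pots: pre-emerge one day after seeding, post-emerge at 2-3 leaf stage with 0.25% v/v non-ionic surfactant. Phytotoxicity was rated 14 days later on a 0 (no damage) to 100 (complete death) scale.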

[2] = tested on: common ragweed (Ambrosia artemisizfolia L., AMBEL); assay: as above; conditions: rating scale 0-100 (0 no damage, 100 complete death), 14 days after application
Outline: as §1

[3] = tested on: large crabgrass (Digitaria sanguinalis, DIGSA); assay: as above; conditions: rating scale 0-100 (0 no damage, 100 complete death), 14 days after application
Outline: as §1

[4] = tested on: barnyardgrass (Echinochloa crus-galli, ECHCG); assay: as above; conditions: rating scale 0-100 (0 no damage, 100 complete death), 14 days after application
Outline: as §1

[5] = tested on: sicklepod (Cassia obtusifolia, CASOB); assay: as above; conditions: rating scale 0-100 (0 no damage, 100 complete death), 14 days after application
Outline: as §1

[6] = tested on: lambsquarters (Chenopodium album, CHEAL); assay: as above; conditions: rating scale 0-100 (0 no damage, 100 complete death), 14 days after application
Outline: as §1

[7] = tested on: redroot pigweed (Amaranthus retroflexus, AMARE); assay: as above; conditions: rating scale 0-100 (0 no damage, 100 complete death), 14 days after application
Outline: as §1

[8] = tested on: ivyleaf morningglory (Ipomoea hederacea, IPOHE); assay: as above; conditions: rating scale 0-100 (0 no damage, 100 complete death), 14 days after application
Outline: as §1

[9] = tested on: green foxtail (Setaria viridis, SETVI); assay: as above; conditions: rating scale 0-100 (0 no damage, 100 complete death), 14 days after application
Outline: as §1

[10] = tested on: upland rice (Oryza sp., var. Tebonnet, RICE); assay: Pre-emerge test, crop safety; conditions: rating scale 0-100, 14 days after application
Outline: (§2)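 Herbicidal damage is scored 0 (none) to 100 (complete plant death) two weeks after a simulated field spray. Rates span 15–1000 g ai/ha, delivered in acetone at 187 l/ha. For post-emergence treatments, plants have 2–3 leaves and the spray carries 0.25% v/v non-ionic surfactant.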

[11] = tested on: field corn (Zea mays L., var. Dekalb 535, CORN); assay: Pre-emerge test, crop safety; conditions: rating scale 0-100, 14 days after application
Outline: as §2

[12] = tested on: redroot pigweed (Amaranthus retroflexus, AMARE); assay: Pre-emerge test, greenhouse herbicide activity screening; conditions: rating scale 0-100, 14 days after application
Outline: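 Visual ratings on a 0-100 scale (0 no damage, 100 all plants dead) were taken at 14 days after treatment. Rates of 15-1000 g ai/ha in acetone, 187 l/ha, were sprayed onto soil one day after planting (pre-emerge) or onto 2-3 leaf plants with 0.25% v/v surfactant (post-emerge).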

[13] = tested on: upland rice (Oryza sp., var. Tebonnet, RICE); assay: Post-emerge test, crop safety; conditions: rating scale 0-100 (0 no damage, 100 complete death), 14 days after application
Outline: (§3)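 Sandy loam pots; pre-emerge: sown 1 d pre-spray, surface-watered after, then bottom-watered. Post-emerge: sown 8–21 d before, 2–3 leaf stage, + 0.25% v/v NIS, bottom-watered. Acetone, 187 l/ha track spray, 15–1000 g ai/ha. 0–100 injury score, day 14.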

[14] = tested on: field corn (Zea mays L., var. Dekalb 535, CORN); assay: Post-emerge test, crop safety; conditions: rating scale 0-100 (0 no damage, 100 complete death), 14 days after application
Outline: as §3

[15] = tested on: velvetleaf (Abutilon theophrasti, ABUTH); assay: Pre-emerge test, greenhouse herbicide activity screening; conditions: rating scale 0-100, 14 days after application
Outline: as §3

[16] = tested on: common ragweed (Ambrosia artemisizfolia L., AMBEL); assay: as above; conditions: rating scale 0-100, 14 days after application
Outline: as §3

[17] = tested on: large crabgrass (Digitaria sanguinalis, DIGSA); assay: as above; conditions: rating scale 0-100, 14 days after application
Outline: as §3

[18] = tested on: barnyardgrass (Echinochloa crus-galli, ECHCG); assay: as above; conditions: rating scale 0-100, 14 days after application
Outline: as §3

[19] = tested on: sicklepod (Cassia obtusifolia, CASOB); assay: as above; conditions: rating scale 0-100, 14 days after application
Outline: as §3

[20] = tested on: lambsquarters (Chenopodium album, CHEAL); assay: as above; conditions: rating scale 0-100, 14 days after application
Outline: as §3

[21] = tested on: johnsongrass (Sorghum halepense, SORHA); assay: as above; conditions: rating scale 0-100, 14 days after application
Outline: as §3

[22] = tested on: ivyleaf morningglory (Ipomoea hederacea, IPOHE); assay: as above; conditions: rating scale 0-100, 14 days after application
Outline: as §3

[23] = tested on: green foxtail (Setaria viridis, SETVI); assay: as above; conditions: rating scale 0-100, 14 days after application
Outline: as §3

SMILES: CCCCCCOC(=O)C(Cl)Cc1c(OC)c(Cl)cc(F)c1-n1c(=O)cc(C(F)(F)F)n(C)c1=O (single isomer, unassigned) [14-12]
- Post-emerge Herbicidal Activity, phytotoxicity rating ABUTH ([1]; Rate 63 g ai/ha): 10
- Post-emerge Herbicidal Activity, phytotoxicity rating ABUTH ([1]; Rate 250 g ai/ha): 85
- Post-emerge Herbicidal Activity, phytotoxicity rating AMBEL ([2]; Rate 63 g ai/ha): 80
- Post-emerge Herbicidal Activity, phytotoxicity rating AMBEL ([2]; Rate 250 g ai/ha): 80
- Post-emerge Herbicidal Activity, phytotoxicity rating DIGSA ([3]; Rate 63 g ai/ha): 50
- Post-emerge Herbicidal Activity, phytotoxicity rating DIGSA ([3]; Rate 250 g ai/ha): 60
- Post-emerge Herbicidal Activity, phytotoxicity rating ECHCG ([4]; Rate 63 g ai/ha): 98
- Post-emerge Herbicidal Activity, phytotoxicity rating ECHCG ([4]; Rate 250 g ai/ha): 99
- Post-emerge Herbicidal Activity, phytotoxicity rating CASOB ([5]; Rate 63 g ai/ha): 20
- Post-emerge Herbicidal Activity, phytotoxicity rating CASOB ([5]; Rate 250 g ai/ha): 80
- Post-emerge Herbicidal Activity, phytotoxicity rating CHEAL ([6]; Rate 63 g ai/ha): 90
- Post-emerge Herbicidal Activity, phytotoxicity rating CHEAL ([6]; Rate 250 g ai/ha): 99
- Post-emerge Herbicidal Activity, phytotoxicity rating AMARE ([7]; Rate 63 g ai/ha): 85
- Post-emerge Herbicidal Activity, phytotoxicity rating AMARE ([7]; Rate 250 g ai/ha): 90
- Post-emerge Herbicidal Activity, phytotoxicity rating IPOHE ([8]; Rate 63 g ai/ha): 40
- Post-emerge Herbicidal Activity, phytotoxicity rating IPOHE ([8]; Rate 250 g ai/ha): 70
- Post-emerge Herbicidal Activity, phytotoxicity rating SETVI ([9]; Rate 63 g ai/ha): 30
- Post-emerge Herbicidal Activity, phytotoxicity rating SETVI ([9]; Rate 250 g ai/ha): 40
- Pre-emerge phytotoxicity rating, crop damage RICE ([10]; 63 g ai/ha): 0
- Pre-emerge phytotoxicity rating, crop damage RICE ([10]; 250 g ai/ha): 0
- Pre-emerge phytotoxicity rating, crop damage CORN ([11]; 63 g ai/ha): 0
- Pre-emerge phytotoxicity rating, crop damage CORN ([11]; 250 g ai/ha): 0
- Pre-emerge herbicidal activity, phytotoxicity rating AMARE ([12]; 63 g ai/ha): 60
- Pre-emerge herbicidal activity, phytotoxicity rating AMARE ([12]; 250 g ai/ha): 100
- Post-emerge phytotoxicity rating RICE (crop damage) ([13]; Rate 63 g ai/ha): 0
- Post-emerge phytotoxicity rating RICE (crop damage) ([13]; Rate 250 g ai/ha): 10
- Post-emerge phytotoxicity rating CORN (crop damage) ([14]; Rate 63 g ai/ha): 30
- Post-emerge phytotoxicity rating CORN (crop damage) ([14]; Rate 250 g ai/ha): 85
- Pre-emerge herbicidal activity, phytotoxicity rating ABUTH ([15]; 63 g ai/ha): 0
- Pre-emerge herbicidal activity, phytotoxicity rating ABUTH ([15]; 250 g ai/ha): 20
- Pre-emerge herbicidal activity, phytotoxicity rating AMBEL ([16]; 63 g ai/ha): 0
- Pre-emerge herbicidal activity, phytotoxicity rating AMBEL ([16]; 250 g ai/ha): 0
- Pre-emerge herbicidal activity, phytotoxicity rating DIGSA ([17]; 63 g ai/ha): 0
- Pre-emerge herbicidal activity, phytotoxicity rating DIGSA ([17]; 250 g ai/ha): 100
- Pre-emerge herbicidal activity, phytotoxicity rating ECHCG ([18]; 63 g ai/ha): 0
- Pre-emerge herbicidal activity, phytotoxicity rating ECHCG ([18]; 250 g ai/ha): 0
- Pre-emerge herbicidal activity, phytotoxicity rating CASOB ([19]; 63 g ai/ha): 0
- Pre-emerge herbicidal activity, phytotoxicity rating CASOB ([19]; 250 g ai/ha): 0
- Pre-emerge herbicidal activity, phytotoxicity rating CHEAL ([20]; 63 g ai/ha): 50
- Pre-emerge herbicidal activity, phytotoxicity rating CHEAL ([20]; 250 g ai/ha): 60
- Pre-emerge herbicidal activity, phytotoxicity rating SORHA ([21]; 63 g ai/ha): 0
- Pre-emerge herbicidal activity, phytotoxicity rating SORHA ([21]; 250 g ai/ha): 0
- Pre-emerge herbicidal activity, phytotoxicity rating IPOHE ([22]; 63 g ai/ha): 0
- Pre-emerge herbicidal activity, phytotoxicity rating IPOHE ([22]; 250 g ai/ha): 0
- Pre-emerge herbicidal activity, phytotoxicity rating SETVI ([23]; 63 g ai/ha): 0
- Pre-emerge herbicidal activity, phytotoxicity rating SETVI ([23]; 250 g ai/ha): 0
